Laboratory results from PMC3814370, “Functional assignment of KEOPS/EKC complex subunits in the biosynthesis of the universal t^6A tRNA modification” (Nucleic Acids Research, 2013).

Key:
Format in all cases: biochemical
[1] = biological target: T1, PaKEOPS (Pcc1-Kae1-Bud32-Cgi121) (Pyrococcus abyssi, UniProt Q9UYB9); test: TLC of radiolabelled ATP hydrolysis; conditions: 100 uM ATP, 50 °C, 30 min, with or without tRNA; reconstituted complex; labelled compound
T1 construct: recombinant from E. coli Rosetta2, His-tag purification; whole complex or reconstituted from Pcc1-Kae1 plus Bud32-Cgi121; homodimer of the heterotetramer; with tRNA N6-adenosine threonylcarbamoyltransferase; KEOPS complex Pcc1-like subunit; Regulatory protein Cgi121

[2] = biological target: T1, PaKEOPS (Pcc1-Kae1-Bud32-Cgi121); test: TLC of radiolabelled ATP hydrolysis; conditions: 100 uM ATP, 50 °C, 30 min, with or without tRNA; reconstituted complex; labelled compound; remark: listed apart in the source
[3] = biological target: T2, Kae1-Bud32-Cgi121 ternary complex (Pyrococcus abyssi, UniProt Q9UYB9); test: TLC of radiolabelled ATP hydrolysis; conditions: 100 uM ATP, 50 °C, 30 min; independent of tRNA; labelled compound
T2 construct: recombinant from E. coli Rosetta2, His-tag purification; ternary complex, monomeric form; with tRNA N6-adenosine threonylcarbamoyltransferase; Regulatory protein Cgi121

[4] = biological target: T3, Kae1-Bud32 binary complex (Pyrococcus abyssi, UniProt Q9UYB9); test: TLC of radiolabelled ATP hydrolysis; conditions: 100 uM ATP, 50 °C, 30 min; independent of tRNA; labelled compound
T3 construct: recombinant from E. coli Rosetta2, His-tag purification; binary complex, monomeric form; with tRNA N6-adenosine threonylcarbamoyltransferase

[5] = biological target: T4, Bud32-Cgi121 binary complex (Pyrococcus abyssi, UniProt Q9UYB9); test: autophosphorylation with gamma-32P ATP, SDS-PAGE phosphorimaging; conditions: 25 uM cold ATP, 55 °C, 30 min; no ATPase activity in TLC assay; labelled compound
T4 construct: recombinant from E. coli Rosetta2, His-tag purification; binary complex, monomeric form; with Regulatory protein Cgi121
T4 sequence (Q9UYB9 1-220): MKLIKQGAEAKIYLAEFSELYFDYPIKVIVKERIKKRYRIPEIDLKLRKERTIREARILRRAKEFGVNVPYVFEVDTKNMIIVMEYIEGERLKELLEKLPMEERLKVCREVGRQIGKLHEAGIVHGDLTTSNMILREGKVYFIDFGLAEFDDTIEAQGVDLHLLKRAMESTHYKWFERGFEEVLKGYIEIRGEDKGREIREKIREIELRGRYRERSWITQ
T4 sequence (Q9UZ62 1-171 partner): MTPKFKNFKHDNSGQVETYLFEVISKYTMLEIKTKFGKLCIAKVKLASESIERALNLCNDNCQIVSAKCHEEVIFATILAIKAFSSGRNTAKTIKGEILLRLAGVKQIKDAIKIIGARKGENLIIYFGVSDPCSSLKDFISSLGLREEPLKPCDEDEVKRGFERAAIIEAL

[6] = biological target: T5, PaKEOPS (Pcc1-Kae1-Bud32-Cgi121) (Pyrococcus abyssi, UniProt Q9UYB9, D127R); test: TLC of radiolabelled ATP hydrolysis; conditions: 100 uM ATP, 50 °C, 30 min, with or without tRNA; reconstituted complex; labelled compound
T5 construct: recombinant from E. coli Rosetta2, His-tag purification; whole complex or reconstituted from Pcc1-Kae1 plus Bud32-Cgi121; homodimer of the heterotetramer; with tRNA N6-adenosine threonylcarbamoyltransferase; KEOPS complex Pcc1-like subunit; Regulatory protein Cgi121

[7] = biological target: T1, PaKEOPS (Pcc1-Kae1-Bud32-Cgi121); test: TLC of radiolabelled ATP hydrolysis; conditions: 100 uM ATP, 50 °C, 30 min; stimulated by tRNA; labelled compound

## Nc1ncnc2c1ncn2[C@@H]1O[C@H](COP(=O)(O)OP(=O)(O)OP(=O)(O)O)[C@@H](O)[C@H]1O [ATP]
[1]
  wild-type ATPase activity: PaKEOPS (Kae1^D159A) behaved in the same manner as the wild-type PaKEOPS
[2]
  normal ATPase activity: the reconstituted mutant PaKEOPS exhibited normal ATPase activity
[3]
  ATPase activity: we recorded a significant ATPase activity that was independent of tRNA
[4]
  ATPase activity: binary complex Kae1–Bud32 exhibited a significant ATPase activity
[5]
  autophosphorylation: When the reaction mixture contained only Bud32–Cgi121, a significant autophosphorylation activity of Bud32 was observed
[6]
  ATPase activity totally lost: PaKEOPS (Bud32^D127R) totally lost the ATPase activity
[7]
  ATPase activity: the ATPase activity of the whole PaKEOPS complex is stimulated by the presence of tRNA
